Experimental data: PubChem BioAssay (NCI)
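96-well plates; 48 h exposure; 5 concentrations. Endpoints by linear interpolation between flanking doses. Not reached: highest tested concentration assigned. Definition used: TGI = concentration required for complete inhibition of growth.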

Legend:
Assay in all cases: growth of human tumour cells (NCI), 48 h
[1] = test system: SF-539 CNS
[2] = test system: LOX IMVI melanoma
[3] = test system: COLO 205 colon
[4] = test system: NCI-H226 lung
[5] = test system: HCT-116 colon
[6] = test system: PC-3 prostate
[7] = test system: SR leukemia
[8] = test system: TK-10 renal
[9] = test system: HOP-62 NSCLC
[10] = test system: SNB-19 CNS
[11] = test system: A549 NSCLC
[12] = test system: K-562 leukemia
[13] = test system: OVCAR-5 ovarian
[14] = test system: HCC-2998 colon
[15] = test system: OVCAR-8 ovarian
[16] = test system: 786-0 renal
[17] = test system: EKVX NSCLC
[18] = test system: IGROV1 ovarian
[19] = test system: UO-31 renal
[20] = test system: MDA-N
[21] = test system: A498 renal
[22] = test system: SW-620 colon
[23] = test system: HT29 colon
[24] = test system: MCF7 breast
[25] = test system: HS 578T breast
[26] = test system: SF-295 CNS
[27] = test system: NCI/ADR-RES ovarian
[28] = test system: SK-MEL-5 melanoma
[29] = test system: SN12C renal
[30] = test system: T-47D breast
[31] = test system: UACC-62 melanoma
[32] = test system: DU-145 prostate
[33] = test system: RPMI-8226 leukemia
[34] = test system: SK-OV-3 ovarian
[35] = test system: BT-549 breast
[36] = test system: NCI-H522 lung
[37] = test system: U251 CNS
[38] = test system: ACHN renal
[39] = test system: MALME-3M melanoma
[40] = test system: KM12 colon
[41] = test system: RXF 393 renal
[42] = test system: CCRF-CEM leukemia
[43] = test system: UACC-257 melanoma
[44] = test system: NCI-H23 lung
[45] = test system: M14 melanoma
[46] = test system: SF-268 CNS
[47] = test system: HL-60(TB) leukemia
[48] = test system: MOLT-4 leukemia
[49] = test system: SK-MEL-28 melanoma
[50] = test system: MDA-MB-435
[51] = test system: CAKI-1 renal
[52] = test system: MDA-MB-231 breast
[53] = test system: HCT-15 colon
[54] = test system: NCI-H460 lung
[55] = test system: OVCAR-3 ovarian
[56] = test system: OVCAR-4 ovarian
[57] = test system: SNB-75 CNS
[58] = test system: SK-MEL-2 melanoma
[59] = test system: HOP-92 NSCLC

Measured: TGI

N#CCc1c(F)c(F)c(F)c(F)c1F
not listed: [54] | [55] | [56] | [57] | [58] | [59]
> 100 µM: all other assays above

Nc1n[n+]([O-])c2cc([N+](=O)[O-])ccc2[n+]1[O-]
83.4 µM: [57]
20.6 µM: [28] | [51]
31.7 µM: [32]
18.6 µM: [30]
10.2 µM: [56]
4.93 µM: [20]
14.4 µM: [38]
16.1 µM: [54]
9.84 µM: [31]
13.2 µM: [18]
18.1 µM: [29]
18.4 µM: [7]
44 µM: [25]
4.25 µM: [36]
15.2 µM: [55]
9.74 µM: [42]
36.3 µM: [58]
44.6 µM: [11]
86.1 µM: [8]
32 µM: [35]
23.7 µM: [19]
44.7 µM: [52]
16 µM: [1]
32.8 µM: [27]
4.16 µM: [48]
35.7 µM: [44]
7.47 µM: [47]
13.6 µM: [53]
17.3 µM: [16]
> 100 µM: [2] | [6] | [22] | [33] | [49]
20.4 µM: [45]
27.1 µM: [43]
42.2 µM: [13]
36.6 µM: [21]
20.5 µM: [15]
3.26 µM: [50]
18.5 µM: [37]
22.3 µM: [9]
19 µM: [3]
31.1 µM: [10]
16.5 µM: [5]
10.1 µM: [23]
22.5 µM: [26]
61.2 µM: [34]
30.7 µM: [4]
11.7 µM: [12] | [24]

Cc1sc2c(c1C)C(=O)c1cccn1-2
not listed: [1] | [44] | [47] | [59]
> 100 µM: all other assays above

C=C1CCC2CC1C(C(=O)c1c[nH]c3ccccc13)=NC2(C)C (configuration not stated)
not listed: [8] | [26] | [41] | [58] | [59]
> 100 µM: all other assays above

N#Cc1ncc(C(Cl)Cl)nc1Cl
3.17 µM: [19] | [52]
4.33 µM: [58]
5.9 µM: [31]
> 6.63 µM: [48]
2.99 µM: [43]
3.3 µM: [3]
3.78 µM: [30] | [37]
4.39 µM: [13]
3.31 µM: [56]
3.07 µM: [20]
3.44 µM: [1]
5.38 µM: [27]
> 6.15 µM: [42]
6.64 µM: [57]
2.89 µM: [51]
3.04 µM: [5]
> 6.39 µM: [39]
3.16 µM: [16] | [23]
3.87 µM: [53]
3.35 µM: [28]
4.32 µM: [38]
3.06 µM: [14]
4.8 µM: [35]
4.59 µM: [55]
3.74 µM: [54]
2.7 µM: [40]
5.94 µM: [44]
3.79 µM: [29]
4.2 µM: [49]
3.82 µM: [8]
3.39 µM: [41]
0.536 µM: [59]
> 7.1 µM: [12]
5.16 µM: [15]
2.97 µM: [2]
> 8.07 µM: [9]
3.62 µM: [6]
> 3.75 µM: [47]
5.3 µM: [18]
> 7.78 µM: [46]
3.9 µM: [50]
> 5.84 µM: [7]
5.31 µM: [22]
3.86 µM: [24]
3.27 µM: [17]
2.82 µM: [45]
1.74 µM: [36]
not listed: [33]
> 10 µM: all other assays above

CCO/C(O)=C(/C(=N)N1CCOCC1)C(=O)Nc1cccc(C(F)(F)F)c1
not listed: [7] | [19] | [28]
> 100 µM: all other assays above

Cc1ccsc1/C=N/NC1=NCCN1
not listed: [1] | [7] | [36] | [47] | [54]
> 100 µM: all other assays above
